Source: ChEMBL document CHEMBL2007661, “Compounds: GSK PKIS; Assays: UNC Frye lab” (2012)
Where “and” joins values, the source holds several entries; their conditions need not be identical. Identical values can stand only once.

Columns and labels:
Conditions in all cases: at 1 µM
[1] = molecular target: T1, Inhibitor of nuclear factor kappa-B kinase subunit epsilon (Homo sapiens) (UniProt Q14164)
T1 sequence (whole entry): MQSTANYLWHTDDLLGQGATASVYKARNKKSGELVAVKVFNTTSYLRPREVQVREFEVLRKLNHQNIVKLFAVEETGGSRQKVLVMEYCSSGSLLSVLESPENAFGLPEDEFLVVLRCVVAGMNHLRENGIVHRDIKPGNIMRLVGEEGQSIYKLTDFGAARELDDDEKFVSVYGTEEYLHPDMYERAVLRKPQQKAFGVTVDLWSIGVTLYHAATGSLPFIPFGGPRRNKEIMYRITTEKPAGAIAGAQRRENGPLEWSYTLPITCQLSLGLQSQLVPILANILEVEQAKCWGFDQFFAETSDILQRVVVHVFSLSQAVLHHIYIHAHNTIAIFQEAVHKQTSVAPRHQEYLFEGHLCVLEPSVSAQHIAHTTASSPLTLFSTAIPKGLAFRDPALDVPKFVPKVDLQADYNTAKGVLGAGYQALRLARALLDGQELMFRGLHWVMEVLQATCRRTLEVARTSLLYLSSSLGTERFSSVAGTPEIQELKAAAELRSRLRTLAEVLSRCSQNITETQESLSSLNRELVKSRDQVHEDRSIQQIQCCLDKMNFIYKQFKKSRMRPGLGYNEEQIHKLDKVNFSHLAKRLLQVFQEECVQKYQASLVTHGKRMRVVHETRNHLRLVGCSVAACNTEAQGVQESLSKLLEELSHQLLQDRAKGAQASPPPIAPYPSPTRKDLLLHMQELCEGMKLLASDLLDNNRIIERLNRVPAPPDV

[2] = molecular target: T2, Serine/threonine-protein kinase TBK1 (Homo sapiens) (UniProt Q9UHD2)
T2 sequence (whole entry): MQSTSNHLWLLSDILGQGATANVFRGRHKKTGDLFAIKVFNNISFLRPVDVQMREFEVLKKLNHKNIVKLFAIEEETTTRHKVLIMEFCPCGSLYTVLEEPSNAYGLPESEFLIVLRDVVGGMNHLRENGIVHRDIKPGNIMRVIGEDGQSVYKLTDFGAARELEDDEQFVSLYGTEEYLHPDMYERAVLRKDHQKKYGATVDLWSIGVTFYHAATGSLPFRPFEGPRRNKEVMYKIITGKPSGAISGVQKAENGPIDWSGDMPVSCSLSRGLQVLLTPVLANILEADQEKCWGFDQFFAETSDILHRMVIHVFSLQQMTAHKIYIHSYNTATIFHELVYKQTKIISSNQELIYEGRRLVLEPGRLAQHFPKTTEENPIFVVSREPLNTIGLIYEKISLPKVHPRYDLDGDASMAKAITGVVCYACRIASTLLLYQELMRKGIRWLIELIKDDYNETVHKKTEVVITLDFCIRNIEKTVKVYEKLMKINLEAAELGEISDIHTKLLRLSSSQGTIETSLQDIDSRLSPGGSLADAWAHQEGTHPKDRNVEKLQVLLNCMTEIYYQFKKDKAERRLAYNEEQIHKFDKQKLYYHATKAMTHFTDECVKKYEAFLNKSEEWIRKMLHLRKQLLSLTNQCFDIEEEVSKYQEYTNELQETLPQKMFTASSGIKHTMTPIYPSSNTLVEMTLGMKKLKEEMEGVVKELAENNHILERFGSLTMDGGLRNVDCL

[3] = molecular target: T3, Inhibitor of nuclear factor kappa-B kinase subunit beta (Homo sapiens) (UniProt O14920)
T3 sequence (whole entry): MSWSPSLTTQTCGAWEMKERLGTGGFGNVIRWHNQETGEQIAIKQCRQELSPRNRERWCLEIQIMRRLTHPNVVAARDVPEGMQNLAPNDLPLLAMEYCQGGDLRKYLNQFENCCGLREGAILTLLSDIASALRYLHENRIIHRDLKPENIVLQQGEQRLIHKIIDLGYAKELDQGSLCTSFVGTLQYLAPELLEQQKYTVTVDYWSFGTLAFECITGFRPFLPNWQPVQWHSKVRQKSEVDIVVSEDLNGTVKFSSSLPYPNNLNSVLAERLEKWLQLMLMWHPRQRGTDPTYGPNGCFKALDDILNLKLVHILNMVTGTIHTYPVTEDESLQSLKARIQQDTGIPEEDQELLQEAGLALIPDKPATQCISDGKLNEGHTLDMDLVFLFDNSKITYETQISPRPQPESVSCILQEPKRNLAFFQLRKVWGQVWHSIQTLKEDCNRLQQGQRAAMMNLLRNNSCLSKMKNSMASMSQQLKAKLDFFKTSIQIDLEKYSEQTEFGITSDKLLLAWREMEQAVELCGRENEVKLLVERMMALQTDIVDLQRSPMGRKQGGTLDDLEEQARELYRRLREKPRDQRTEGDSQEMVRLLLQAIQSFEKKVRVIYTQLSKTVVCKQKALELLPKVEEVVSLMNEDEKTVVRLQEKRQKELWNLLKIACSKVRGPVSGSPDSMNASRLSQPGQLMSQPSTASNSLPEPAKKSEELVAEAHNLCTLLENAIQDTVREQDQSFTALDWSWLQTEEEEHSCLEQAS

With NS(=O)(=O)c1ccc(N/N=C2\C(=O)Nc3cccc(CCc4ccncc4)c32)cc1 the inhibition [1] was 5% and 3%, the inhibition [2] was 29% and 25% and the inhibition [3] was -7%.
With CC(C)c1ccc(Nc2nccc(-c3cnn4ncccc34)n2)cc1 the inhibition [1] was 15% and 11%, the inhibition [2] was 18% and 19% and the inhibition [3] was -4% and -10%.
CN1CCC(n2cnc(-c3ccc(F)cc3)c2-c2ccnc(Nc3ccccc3)n2)CC1 was tested, and the inhibition [1] was 0% and -2%, the inhibition [2] was 0% and -2% and the inhibition [3] was -3% and 2%.
In the case of O=S(=O)(CCNCc1ccc(-c2ccc3ncnc(Nc4ccc(OCc5cccc(F)c5)c(Cl)c4)c3c2)o1)c1ccccc1, the inhibition [1] is reported as -2% and -1%, the inhibition [2] is reported as 12% and 18% and the inhibition [3] is reported as 0% and -2%.
In the case of NC(=O)c1ccc(-c2nc(-c3ccccn3)c(-c3ccc4c(c3)OCO4)[nH]2)cc1, the inhibition [1] is reported as -1% and -3%, the inhibition [2] is reported as 0% and 5% and the inhibition [3] is reported as 5% and 2%.
For COc1cccc(-n2cnc3c(N/N=C/c4ccncc4)ncnc32)c1, the inhibition [1] was 1% and 0%, the inhibition [2] was 4% and -1% and the inhibition [3] was -3% and 4%.
In the case of CN(C)C(=O)O[C@H]1CN[C@H](C#Cc2cc3ncnc(Nc4ccc(OCc5cccc(F)c5)c(Cl)c4)c3s2)C1, the inhibition [1] is reported as 0% and 2%, the inhibition [2] is reported as 7% and 8% and the inhibition [3] is reported as 4% and -2%.
In the case of Cc1nc(-c2ccccc2)n2nc(NCCCN3CCOCC3)ncc12, the inhibition [1] is reported as 3% and 4%, the inhibition [2] is reported as 5% and 8% and the inhibition [3] is reported as -2% and 2%.
With CCn1cc(-c2ccnc3[nH]ccc23)c(-c2cccc(NC(=O)Nc3ccc(OCc4ccccc4)cc3)c2)n1 the inhibition [1] was 0% and 1%, the inhibition [2] was -4% and -1% and the inhibition [3] was -3% and 0%.
O=C1NC(=O)C(c2ccc(Cl)cc2)=C1Nc1ccc(Cl)c(C(=O)O)c1 was tested, and the inhibition [1] was 1% and 2%, the inhibition [2] was -2% and -4% and the inhibition [3] was -5% and -2%.
In the case of CCn1c(-c2nonc2N)nc2c(C#CC(C)(C)O)nc(OCCNC)cc21, the inhibition [1] is reported as 44% and 46%, the inhibition [2] is reported as 23% and 19% and the inhibition [3] is reported as -2%.
With COc1cc(/C=N/Nc2ncnc3c2cnn3C(C)C)ccc1O the inhibition [1] was 0% and -3%, the inhibition [2] was 9% and 8% and the inhibition [3] was 4% and 0%.
With CS(=O)(=O)CCNCc1ccc(-c2ccc3ncnc(Nc4ccc(OCc5ccccc5)c(Cl)c4)c3c2)o1 the inhibition [1] was 1% and -3%, the inhibition [2] was -2% and 0% and the inhibition [3] was 1%.
In the case of Cc1nn(C)c2cc(N(C)c3ccnc(Nc4cccc(S(N)(=O)=O)c4)n3)ccc12, the inhibition [1] is reported as 2%, the inhibition [2] is reported as 1% and 5% and the inhibition [3] is reported as -2% and 4%.
With COc1cc2c(cc1Nc1nc(N3CCc4ccccc43)c3cc[nH]c3n1)N(C(=O)CN(C)C)CC2 the inhibition [1] was 21% and 19%, the inhibition [2] was 24% and 28% and the inhibition [3] was -6%.
COc1cc(C=NNc2ncnc3c2cnn3-c2ccccc2)ccc1O was tested, and the inhibition [1] was 13% and 11%, the inhibition [2] was 38% and 42% and the inhibition [3] was 2%.
For CS(=O)(=O)Nc1cccc(-c2ccc3c(NC(=O)C4CC4)n[nH]c3c2)c1, the inhibition [1] was 0%, the inhibition [2] was 3% and 5% and the inhibition [3] was -6%.
For Fc1ccc(-c2nn3ccccc3c2-c2ccncc2)cc1, the inhibition [1] was -4% and 2%, the inhibition [2] was -4% and -8% and the inhibition [3] was -5%.
O=C(NCC1CC1)c1ccc(-c2cccc(C(=O)NC3CC3)c2)cc1 was tested, and the inhibition [1] was -5% and 0%, the inhibition [2] was 2% and 1% and the inhibition [3] was 1% and 4%.
NS(=O)(=O)c1ccc(N/N=C2\C(=O)Nc3ccc(C(=O)NCCCn4ccnc4)cc32)cc1 was tested, and the inhibition [1] was 27%, the inhibition [2] was 42% and 41% and the inhibition [3] was -1%.
COC(=O)c1ccc2c(c1)C(=Cc1cc(Br)c(O)c(Br)c1)C(=O)N2 was tested, and the inhibition [1] was 51% and 52%, the inhibition [2] was 36% and the inhibition [3] was 0% and -2%.
In the case of NC(=O)c1sc(-n2cnc3ccc(C(F)(F)F)cc32)cc1OCc1ccccc1Br, the inhibition [1] is reported as 2% and 1%, the inhibition [2] is reported as 21% and 4% and the inhibition [3] is reported as -1% and -4%.
For Nc1nonc1-c1nc2cnccc2n1C1CC1, the inhibition [1] was 11% and 21%, the inhibition [2] was 8% and the inhibition [3] was -3% and 2%.
COC(=O)Nc1nc2ccc(S(=O)(=O)c3ccc(NC(=O)Nc4cc(C(F)(F)F)ccc4F)cc3)cc2[nH]1 was tested, and the inhibition [1] was -1% and -2%, the inhibition [2] was 0% and the inhibition [3] was -6% and -5%.
With O=C(Nc1ccc(Oc2ccc3[nH]c(NC(=O)c4ccccc4)nc3c2)cc1)Nc1cc(C(F)(F)F)ccc1F the inhibition [1] was 6% and 5%, the inhibition [2] was 6% and 3% and the inhibition [3] was -2% and 2%.
CCn1c(-c2nonc2N)nc2ccncc21 was tested, and the inhibition [1] was -2% and -1%, the inhibition [2] was -4% and -5% and the inhibition [3] was -4% and -5%.
